Measured values as given in patent US9561228B2 (Celgene Avilomics Research, Inc., priority 2013, dated 2017).

Target: T1, MEK1 activated ERK1 (Homo sapiens, UniProt P27361)
T1 construct: purchased Millipore (Billerica, Mass.) 14-439-K
Assay: Omnia continuous-read kinase assay for potency against MEK1 activated ERK1
Assay type: biochemical
Conditions: MEK1 activated ERK1, ATP at KM; read-out: ERK1 Omnia WT ATP KM IC50
Description: Omnia Assay Protocol for Potency Assessment Against MEK1 Activated ERK1:
The protocol below describes continuous-read kinase assays to measure potency of compounds against activated ERK1 enzyme. The mechanics of the assay platform are best described by the vendor (Invitrogen, Carlsbad, Calif.) on their website at the following URL: invitrogen.com/site/us/en/home.html.
Briefly, a 1.25× stock of ERK1 enzyme (14-439-K) from Millipore (Billerica, Mass.), 5×ATP (AS001A) and ST17-Sox conjugated peptide substrate (KNZ1171C) were prepared in 1× kinase reaction buffer consisting of 20 mM Tris, pH 7.5, 5 mM MgCl2, 1 mM EGTA, 5 mM β-glycerophosphate, 5% glycerol (10× stock, KB002A) and 0.2 mM DTT. 10 μL of ATP/ST17-sox peptide substrate mix was combined with 0.5 μL volume of 100% DMSO and serially diluted compounds were prepared in 100% DMSO in a Corning (#3574) 384-well, white, non-binding surface microtiter plate (Corning, N.Y.). Kinase reactions were started with the addition of 40 μL of ERK1 solution and monitored every 71 seconds for 30-240 minutes at λex360/λem485 in a Synergy plate reader from BioTek (Winooski, Vt.). At the conclusion of each assay, progress curves from each well were examined for linear reaction kinetics and fit statistics (R^2, 95% confidence interval, absolute sum of squares). Initial velocity (0 minutes to ˜30+ minutes) from each reaction was determined from the slope of a plot of relative fluorescence units vs time (minutes or seconds) and then plotted against inhibitor concentration to estimate ^AppIC50 from log [Inhibitor] vs Response, Variable Slope model in GraphPad Prism from GraphPad Software (San Diego, Calif.).
[Reagent] used in optimized protocol:
[ERK1]=4 nM, [ATP]=50 μM, [ST17-Sox]=10 μM (ATP ^appKM 48 μM)
The results of this assay show the degree of inhibition of ERK activity, which is a direct measurement of inhibition of ERK activity. Results from this assay are reported in Table A under the column “ERK1 Omnia WT ATP KM IC50 (nM).”

T1 sequence (P27361 whole entry): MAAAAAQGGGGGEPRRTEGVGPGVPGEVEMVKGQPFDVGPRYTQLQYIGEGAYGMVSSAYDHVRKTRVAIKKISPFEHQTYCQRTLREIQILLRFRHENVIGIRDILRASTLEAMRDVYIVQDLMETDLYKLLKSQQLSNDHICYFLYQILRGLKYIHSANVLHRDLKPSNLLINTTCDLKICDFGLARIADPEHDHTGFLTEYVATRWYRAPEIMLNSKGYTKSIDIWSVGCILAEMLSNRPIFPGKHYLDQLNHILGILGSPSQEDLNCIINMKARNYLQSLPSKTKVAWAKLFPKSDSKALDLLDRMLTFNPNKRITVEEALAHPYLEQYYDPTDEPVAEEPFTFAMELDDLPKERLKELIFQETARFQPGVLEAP

| IC50 [nM] | Structure (SMILES) |
| --- | --- |
| 101 to 500 | C=CC(=O)Nc1ccccc1Nc1nc(N[C@@H]2CCC[C@H](C(=O)NOCCO)C2)ncc1C(F)(F)F (racemic) [Compound I-4, Rac-cis-3-((4-((2-acrylamidophenyl)amino)-5-(trifluoromethyl)pyrimidin-2-yl)amino)-N-(2-hydroxyethoxyl)cyclohexanecarboxamide] |
| 101 to 500 | C=CC(=O)Nc1ccccc1Nc1nc(N[C@@H]2CCC[C@H](C(=O)NOC)C2)ncc1Cl (racemic) [Compound I-203, Rac-cis-3-((4-((2-acrylamidophenyl)amino)-5-chloropyrimidin-2-yl)amino)-N-methoxycyclohexanecarboxamide] |
| > 1000 | C=CC(=O)N[C@@H]1CCCC[C@H]1Nc1nc(Nc2cc(C(=O)NOCCO)ccc2C)ncc1C(N)=O (racemic) [Compound I-257, Rac-trans-4-((2-acrylamidocyclohexyl)amino)-2-((5-((2-hydroxyethoxy)carbamoyl)-2-methylphenyl)amino)pyrimidine-5-carboxamide] |
| > 1000 | C=CC(=O)N[C@@H]1CCCC[C@H]1Oc1nc(Nc2cc(C(N)=O)ccc2C)ncc1C(N)=O (racemic) [Compound I-268, Rac-trans-4-((2-acrylamidocyclohexyl)oxy)-2-((5-carbamoyl-2-methylphenyl)amino)pyrimidine-5-carboxamide] |
| > 1000 | C=CC(=O)N[C@@H]1CCCC[C@H]1Oc1nc(Nc2cc(C(=O)NOC)ccc2C)ncc1C(N)=O (racemic) [Compound I-269, Rac-trans-4-((2-acrylamidocyclohexyl)oxy)-2-((5-(methoxycarbamoyl)-2-methylphenyl)amino)pyrimidine-5-carboxamide] |
| > 1000 | C=CC(=O)N[C@@H]1CCCC[C@H]1Oc1nc(Nc2cc(C(N)=O)ccc2C)ncc1Cl (racemic) [Compound I-270, Rac-trans-3-((4-((2-acrylamidocyclohexyl)oxy)-5-chloropyrimidin-2-yl)amino)-4-methylbenzamide] |
| 101 to 500 | C=CC(=O)Nc1ccccc1Nc1nc(N[C@H]2CC[C@H](O)CC2)ncc1C(F)(F)F [Compound I-1, Trans-N-(2-((2-((4-hydroxycyclohexyl)amino)-5-(trifluoromethyl)pyrimidin-4-yl)amino)phenyl)acrylamide] |
| 101 to 500 | C=CC(=O)Nc1ccccc1Nc1nc(N[C@H]2CC[C@H](C(N)=O)CC2)ncc1C(F)(F)F [Compound I-16, 4-((4-((2-acrylamidophenyl)amino)-5-(trifluoromethyl)pyrimidin-2-yl)amino)-trans-cyclohexanecarboxamide] |
| 501 to 999 | C=CC(=O)Nc1ccccc1Nc1nc(N[C@H]2CCCN(C(=O)C(C)=O)C2)ncc1C(F)(F)F [Compound I-49, (S)—N-(2-((2-((1-(2-Oxopropanoyl)piperidin-3-yl)amino)-5-(trifluoromethyl)pyrimidin-4-yl)amino)phenyl)acrylamide] |
| 101 to 500 | C=CC(=O)Nc1ccccc1Nc1nc(N[C@H]2CCCN(C(=O)[C@@H](O)CO)C2)ncc1C(F)(F)F [Compound I-50, N-(2-((2-(((S)-1-((S)-2,3-Dihydroxypropanoyl)piperidin-3-yl)amino)-5-(trifluoromethyl)pyrimidin-4-yl)amino)phenyl)acrylamide] |
| 101 to 500 | C=CC(=O)Nc1ccccc1Nc1nc(N[C@H]2CCCN(C(=O)[C@H](O)CO)C2)ncc1C(F)(F)F [Compound I-51, N-(2-((2-(((S)-1-((R)-2,3-Dihydroxypropanoyl)piperidin-3-yl)amino)-5-(trifluoromethyl)pyrimidin-4-yl)amino)phenyl)acrylamide] |
| 501 to 999 | C=CC(=O)Nc1ccccc1Nc1nc(Nc2cc(C(=O)O)ccc2C)ncc1C(F)(F)F [Compound I-78, 3-((4-((2-Acrylamidophenyl)amino)-5-(trifluoromethyl)pyrimidin-2-yl)amino)-4-methylbenzoic acid] |
| 501 to 999 | C=C(C)S(=O)(=O)Nc1ccccc1Nc1nc(Nc2cc(C(C)=O)ccc2C)ncc1C(F)(F)F [Compound I-97, N-(2-((2-((5-acetyl-2-methylphenyl)amino)-5-(trifluoromethyl)pyrimidin-4-yl)amino)phenyl)prop-1-ene-2-sulfonamide] |
| 101 to 500 | C=CC(=O)Nc1ccccc1Nc1nc(N[C@H]2CC[C@H](OC)CC2)ncc1Cl [Compound I-100] |
| 101 to 500 | C=CC(=O)Nc1ccccc1Nc1nc(N[C@H]2CC[C@H](O)CC2)ncc1Cl [Compound I-101] |
| 501 to 999 | C=CC(=O)N(C)c1ccccc1Nc1nc(N[C@H]2CC[C@H](O)CC2)ncc1Cl [Compound I-104, N-(2-((5-chloro-2-(trans-(4-hydroxycyclohexyl)amino)pyrimidin-4-yl)amino)phenyl)-N-methylacrylamide] |
| 501 to 999 | C=CC(=O)Nc1ccccc1Nc1nc(N[C@H]2CC[C@@H](O)CC2)ncc1C(F)(F)F [Compound I-109, N-(2-((2-(cis-(4-hydroxycyclohexyl)amino)-5-(trifluoromethyl)pyrimidin-4-yl)amino)phenyl)acrylamide] |
| 101 to 500 | C=CC(=O)Nc1ccccc1Nc1nc(N[C@@H]2CCCN(C(C)=O)C2)ncc1Cl [Compound I-128, (R)—N-(2-((2-((1-acetylpiperidin-3-yl)amino)-5-chloropyrimidin-4-yl)amino)phenyl)acrylamide] |
| 101 to 500 | C=CC(=O)Nc1ccccc1Nc1nc(N[C@H]2CC[C@H](C(N)=O)CC2)ncc1Cl [Compound I-129, trans-4-((4-((2-acrylamidophenyl)amino)-5-chloropyrimidin-2-yl)amino)-cyclohexanecarboxamide] |
| 101 to 500 | C=CC(=O)Nc1ccccc1Nc1nc(Nc2ccc(N3CCNCC3)cc2OC(F)F)ncc1Cl [Compound I-142, N-(2-((5-chloro-2-((2-(difluoromethoxy)-4-(piperazin-1-yl)phenyl)amino)pyrimidin-4-yl)amino)phenyl)acrylamide] |
| 501 to 999 | C=CC(=O)Nc1cc(OC)ccc1Nc1nc(Nc2ccc(N3CCN(C(C)=O)CC3)cc2OC)ncc1Cl [Compound I-152, N-(2-((2-((4-(4-acetylpiperazin-1-yl)-2-methoxyphenyl)amino)-5-chloropyrimidin-4-yl)amino)-5-methoxyphenyl)acrylamide] |
| 501 to 999 | C=CC(=O)Nc1cc(OC)ccc1Nc1nc(Nc2ccc(N3CCC[C@H]3CO)cc2C#N)ncc1Cl [Compound I-163, (S)—N-(2-((5-chloro-2-((2-cyano-4-(2-(hydroxymethyl)pyrrolidin-1-yl)phenyl)amino)pyrimidin-4-yl)amino)-5-methoxyphenyl)acrylamide] |
| 501 to 999 | C=CC(=O)Nc1ccccc1Nc1nc(Nc2ccc(N(CCCNC(=O)OC(C)(C)C)C(C)=O)cc2C(F)(F)F)ncc1Cl [Compound I-169, tert-butyl(3-(N-(4-((4-((2-acrylamidophenyl)amino)-5-chloropyrimidin-2-yl)amino)-3-(trifluoromethyl)phenyl)acetamido)propyl)carbamate] |
| 501 to 999 | C=CC(=O)Nc1ccccc1Nc1nc(Nc2ccc(N(CCCNC(=O)OC(C)(C)C)C(C)=O)cc2OC)ncc1Cl [Compound I-173] |
| 101 to 500 | C=CC(=O)Nc1cc(OC)ccc1Nc1nc(Nc2ccc(N(CC)C(C)=O)cc2OC)ncc1Cl [Compound I-175, N-(2-((5-chloro-2-((4-(N-ethylacetamido)-2-methoxyphenyl)amino)pyrimidin-4-yl)amino)-5-methoxyphenyl)acrylamide] |
| 501 to 999 | C=CC(=O)Nc1cc(OC)ccc1Nc1nc(Nc2ccc(N(CC)C(C)=O)cc2C(F)(F)F)ncc1Cl [Compound I-176, N-(2-((5-chloro-2-((4-(N-ethylacetamido)-2-(trifluoromethyl)phenyl)amino)pyrimidin-4-yl)amino)-5-methoxyphenyl)acrylamide] |
| 101 to 500 | C=CC(=O)Nc1ccccc1Nc1nc(Nc2ccc(N3CCC[C@H]3C(N)=O)cc2C#N)ncc1Cl [Compound I-177, (S)-1-(4-((4-((2-acrylamidophenyl)amino)-5-chloropyrimidin-2-yl)amino)-3-cyanophenyl)pyrrolidine-2-carboxamide] |
| 501 to 999 | C=CC(=O)Nc1cc(OC)ccc1Nc1nc(Nc2ccc(N3CCC[C@@H]3CO)cc2C#N)ncc1Cl [Compound I-181, (R)—N-(2-((5-chloro-2-((2-cyano-4-(2-(hydroxymethyl)pyrrolidin-1-yl)phenyl)amino)pyrimidin-4-yl)amino)-5-methoxyphenyl)acrylamide] |
